# From article PMC10761396, “Evaluation of new alternative methods for the identification of estrogenic, androgenic and steroidogenic effects: a comparative in vitro/in silico study” (Archives of Toxicology, 2023)
# Like-named read-outs stand apart in the source and are kept apart here.
# Assays:
# H295R cells = experiment: H295R steroidogenesis assay (oestrogen and androgen production); type: cell-based, human; details: for minimal effective concentration: Homo sapiens, NCI-H295R, 48 h
# Experimental: The in vitro H295R Steroidogenesis Assay is based on the human adenocarcinoma cell line, NCI-H295R, in which the human steroidogenesis pathway is fully functional (OECD 2022). The effect of the test chemical on the production of 17β-estradiol and testosterone is measured using ERα CALUX and AR CALUX technology.
# The test chemical was tested in two independent assays, each in triplicate.
# ER [1] = experiment: ToxCast ER assays and final ToxCast call; details: for Final "true" call (ToxCast) ER: from active ToxCast assays, cytotoxicity, ToxCast Pathway Model and CERAPP Potency Level
# Excerpt: (§1) A rich source of data can be found in the EPA's ToxCast database (US EPA). This contains ED data for ~ 1800 chemicals in more than 700 high-throughput assay endpoints that cover a range of high-level cell responses. The US EPA is running an Endocrine Disruption Screening Program (EDSP), with the aim of prioritising chemicals using high-throughput screening methods and computational toxicology approaches to evaluate thousands of chemicals for ED activities. The OECD framework for ED assessment (OECD [2018]) requires animal testing at higher levels, where relevant in vitro alternatives are missing e.g. for developmental, reproductive, neurological and immune effects. However, such follow-up testing is not possible for the cosmetics industry especially in the EU due to the complete animal testing ban which came into force in March 2013 (EU [2009]). Even for other industries, animal models are not suitable for assessing ED effects due to issues relating to ethics, capacity, speed and relevance (Patisaul et al. [2018]). Therefore, chemicals which cannot be evaluated using in vivo method must be assessed using alternative methods e.g. in silico and in vitro methods listed in Levels 1 and 2 of the framework described in the OECD 150 test guideline (OECD [2018]).
# (§2) The performance of different in silico models for ED effects tends to be evaluated on single model for a single effect, such as ER or AR binding, agonism or antagonism (normally by the developer), or a limited number of models using multiple chemicals (Weyrich et al. [2022]). Multi-organisation collaborations have also evaluated multiple models for a specific effect e.g. ER (Mansouri et al. [2016]) and AR (Mansouri et al. [2020]) effects. Therefore, we have conducted a side-by-side comparison of multiple different in silico models covering three pathways in ED, namely ER, AR and aromatase inhibition and compared these with ToxCast-derived final calls, as well as with results from in vitro assays. The efficiency of the in silico models was evaluated as a metric for the ability of the in silico model to generate concrete predictions. […] In vivo data were available for some but not all chemicals; therefore, an evaluation of the performance of the methods was made by comparing the derived overall calls from in silico models with those from the ToxCast database. The final call for each chemical evaluated in the ToxCast assays was made by considering the active-flagged assays and the corresponding cytotoxicity levels, the ToxCast Pathway Model (Browne et al. [2015]) and the CERAPP Potency Level (Mansouri et al. [2016]) for ER effects and the ToxCast Pathway Model (Kleinstreuer et al. [2017]) for AR effects (see Online Resource 1 Supplementary Tables 2, 4 and 6 for the outcome of the ER, AR and aromatase ToxCast assays, additional literature and final calls for each chemical and target).
# AR [2] = experiment: ToxCast AR assays and final ToxCast call; details: for Final "true" call (ToxCast): AR effects, from active assays, cytotoxicity and pathway model
# Excerpt: as §1, §2
# aromatase [3] = experiment: ToxCast aromatase assays (TOX21_Aromatase_Inhibition) and final ToxCast call; type: cell-based; details: for ToxCast result: aromatase overall ToxCast call; for Final "true" call (ToxCast) Aromatase inhibition: from ToxCast assays
# Excerpt: as §2
# Aromatase represents only one enzyme involved in steroidogenesis (the conversion of androgens to oestrogens); therefore, the aromatase assay detects effects on 17β-oestradiol production only. […] It is a cell-based assay in which MCF-7 cells are incubated with the test chemical for 24 h before measuring aromatase activities indirectly via a luciferase-based reporter endpoint which is dependent on the binding of the oestradiol–ER complex to the oestrogen response element. A decrease in luciferase activity can occur as a result of direct inhibition of aromatase (preventing the production of oestradiol) or by preventing oestradiol from binding to the ER and thus the binding to the oestrogen RE which initiates the production of luciferase (Lui et al. [2008]).
# Solubility = type: physicochemical
# ER [4] = tested on: ER; set-up: method as in US EPA ToxCast; details: ref US EPA ToxCast, cited from earlier work
# ER [5] = tested on: ER; set-up: method as in Browne, et al (2015); details: ref Browne, et al (2015), cited from earlier work; for ToxCast Pathway Model (AUC): as agonist where given, value above 0.1 = significant interaction
# ER [6] = tested on: ER; set-up: method as in Mansouri et al. 2016; details: ref Mansouri et al. 2016; cited from earlier work
# AR [7] = tested on: AR; set-up: method as in ToxCast; details: ref ToxCast, cited from earlier work; for ToxCast conclusion from assays result: AR sheet; for ToxCast 1: (Active assays), number of positive assays / assays run: ToxCast AR assays
# AR [8] = details: cited from earlier work; for ToxCast Pathway Model (AUC): AR pathway model, ref Kleinstreuer et al (2017) 10.1021/acs.chemrestox.6b00347
# aromatase [9] = tested on: aromatase; set-up: method as in US EPA ToxCast; details: ref US EPA ToxCast; cited from earlier work
# MCF-7 cells = details: cited from earlier work
# human (non-selective) ER = experiment: ER radioligand ([3H]estradiol) receptor-binding assay; details: single-dose screening, 10 µM
# Experimental: The chemicals were tested for their ability to bind to different targets. […] Chemicals were incubated at 10 µM with cells overexpressing ER or AR for 24 h at 4°C, after which, the binding of the radiolabeled ligand ([^3H]estradiol for ER and [^3H]methyltrienolone for AR) was measured by liquid scintillation counting. An increase or decrease higher than 50% were considered to represent significant effects. Four chemicals were tested in additional incubations at several concentrations up to the maximum soluble concentration for IC50 or EC50 determination for the associated target. Receptor binding was calculated as a % inhibition of the binding of a radioactively labeled ligand specific for each target.
# Each test chemical was tested in a single assay in duplicate.
# [10] = target: T1, human recombinant CYP19A1 (Homo sapiens, UniProt P11511); experiment: Recombinant enzyme aromatase activity inhibition assay; type: biochemical; details: follow-up dose–response assay
# T1 sequence (P11511 1-503): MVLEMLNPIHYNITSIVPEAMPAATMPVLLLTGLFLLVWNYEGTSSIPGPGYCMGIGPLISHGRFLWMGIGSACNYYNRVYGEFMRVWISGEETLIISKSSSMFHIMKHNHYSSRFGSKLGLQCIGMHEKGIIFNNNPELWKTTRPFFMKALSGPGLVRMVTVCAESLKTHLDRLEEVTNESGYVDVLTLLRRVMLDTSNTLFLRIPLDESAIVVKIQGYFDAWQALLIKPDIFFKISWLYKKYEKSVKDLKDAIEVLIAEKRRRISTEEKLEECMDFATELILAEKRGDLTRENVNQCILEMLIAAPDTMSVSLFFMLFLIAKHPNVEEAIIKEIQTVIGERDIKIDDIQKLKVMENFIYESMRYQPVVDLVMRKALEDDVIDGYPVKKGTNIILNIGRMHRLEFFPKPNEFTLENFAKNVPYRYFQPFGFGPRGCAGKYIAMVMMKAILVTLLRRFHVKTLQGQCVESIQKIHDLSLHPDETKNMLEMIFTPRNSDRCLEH
# Experimental: An aromatase inhibition assay was also included in the in vitro assay panel. This enzyme – otherwise known as CYP19A1 - is responsible for converting androgens into estrogens (Blakemore and Naftolin 2016; Bulun 2014); therefore, chemicals that inhibit aromatase activity can lead to reduced estrogen production, which can affect reproductive and developmental processes (Kragie 2002; Tiboni and Ponzano 2016).
# The metabolite, estradiol, was measured by time-resolved fluorescence according to the method described previously (Ji et al. 2014). Enzyme inhibition was calculated as a % inhibition of control enzyme activity.
# AR [11] = tested on: AR; set-up: method as in Park et al. [2021]; details: ref Park et al. [2021]; cited from earlier work
# [12] = UPITT_HCI_U2OS_AR_TIF2_Nucleoli_Antagonist
compound,measurement,setting,value
"CCCCOC(=O)c1ccccc1C(=O)OCc1ccccc1 [BBP, benzyl butyl phthalate]",minimal effective concentration,H295R cells; read-out: Steroidogenesis Androgenicity LEC,> 10 µM
same,minimal effective concentration,H295R cells; read-out: Steroidogenesis Estrogenicity LEC,> 10 µM
same,"Final ""true"" call (ToxCast) ER",ER [1],Positive for agonism
same,ToxCast result (ER),ER [1]; overall call from ToxCast data (Supplementary Table 2),ER agonist only
same,"Final ""true"" call (ToxCast)",AR [2],Inconclusive
same,ToxCast result,aromatase [3],Negative
same,"Final ""true"" call (ToxCast) Aromatase inhibition",aromatase [3],Negative
same,solubility,Solubility,~10 µM
same,"ToxCast 1: (Active assays), positive/total ER assays",ER [4],14/21 positive
same,ToxCast conclusion from assays result,ER [4],Endocrine Disruption Potential.Significant Estrogen Receptor activity seen
same,ToxCast Pathway Model (AUC),ER [5],0.18
same,ToxCast Pathway Model interaction,ER [5],significant interaction
same,CERAPP Potency Level,ER [6],Very weak antagonist
same,ToxCast conclusion from assays result,AR [7],Endocrine Disruption Potential.Significant Estrogen Receptor activity seen
same,efficacy (assays Comments),AR [7]; TOX21_AR_LUC_MDAKB2_Antagonist_0.5nM_R1881,Boarderline: less than 50% efficacy (38.4%)
same,"ToxCast 1: (Active assays), number of positive assays / assays run",AR [7],2/14 positive
same,efficacy (assays Comments),AR [7]; [12],Boarderline: less than 50% efficacy (48.9%)
same,ToxCast Pathway Model (AUC),AR [8],"AUC = 0, then there is no significant interaction."
same,"ToxCast (Aromatase assays), positive/total",aromatase [9],0/2 positive
C=CCc1ccc(O)c(OC)c1 [eugenol],effect on MCF-7 cells,MCF-7 cells,cytotoxicity
isoeugenol,inhibition of control specific binding to the ER,human (non-selective) ER,less than -25%
same,aromatase inhibition outcome,[10],positive
same,"LEC, oestrogen production",H295R cells; increase,10 µM
same,"Final ""true"" call (ToxCast) ER",ER [1],Inconclusive
same,"Final ""true"" call (ToxCast)",AR [2],Negative
same,ToxCast result,AR [2]; AR overall call from Supplementary Table 4,Negative
same,"Final ""true"" call (ToxCast) AR",AR [2]; from ToxCast assays and ToxCast Pathway Model,Negative
same,ToxCast result,aromatase [3],Negative
same,"Final ""true"" call (ToxCast) Aromatase inhibition",aromatase [3],Negative
same,"ToxCast 1: (Comments), efficacy",ER [4]; borderline: less than 50% efficacy,Boarderline: less than 50% efficacy
same,"ToxCast 1: (Active assays), positive/total ER assays",ER [4],9/19 positive
same,ToxCast conclusion from assays result,ER [4],Endocrine Disruption Potential.Significant Estrogen Receptor activity seen
same,ToxCast Pathway Model (AUC),ER [5],0.0124
same,ToxCast Pathway Model interaction,ER [5],no significant interaction
same,CERAPP Potency Level,ER [6],Weak agonist/ antagonist
same,ToxCast conclusion from assays result,AR [7],Endocrine Disruption Potential.Significant Estrogen Receptor activity seen
same,"ToxCast 1: (Active assays), number of positive assays / assays run",AR [7],1/14 positive
same,ToxCast 1: (assays Comments),AR [7]; [12],Only highest concentration above the baseline
same,efficacy (assays Comments),AR [7]; [12],Boarderline: less than 50% efficacy (48.8%)
same,ToxCast Pathway Model (AUC),AR [8],"AUC = = 0, then there is no significant interaction."
same,"ToxCast Pathway model, interaction with the AR",AR [8]; ref Kleinstreuer et al. [2017],insignificant
same,"ToxCast (Aromatase assays), positive/total",aromatase [9],0/2 positive
same,AR antagonism and impact of metabolism,AR [11],exhibits AR antagonism which is decreased by metabolism
